# Where “and” joins values, the source holds several entries; their conditions need not be identical. Identical values can stand only once.
# Experiments:
# [1] = tested on: GN48 Klebsiella pneumoniae; assay: Pre-chequerboard MIC, broth microdilution (Example 6); assay type: cell-based; conditions: GN48 / NCTC 13443, NCTC 13443, NDM-1
# Source text: (§1) A chequerboard technique was used to identify possible synergistic or antagonistic interactions between the 4-oxoquinolizines compounds, levofloxacin and polymyxin B. Levofloxacin was included as a control. […] Final dilutions were made in Mueller-Hinton broth, the specific test medium used for MIC determinations according to CLSI guidelines (CLSI. Methods for Dilution Antimicrobial Susceptibility Tests for Bacteria That Grow Aerobically; Approved Standard-Eighth Edition (2009). CLSI Document M07-A8. CLSI, Wayne, Pa. 19087-1898, USA.). The test medium used was a cation-adjusted Mueller-Hinton Broth II (Becton Dickinson UK Ltd., Oxford Science Park, Oxford, UK, OX4 4DQ).
# (§2) The compounds 2, 33 and 35, as well as levofloxacin were tested in combination with polymyxin B on the following isolates: GN31 Acinetobacter baumannii—antibiotic susceptible clinical isolate, GN52 Acinetobacter baumannii—levofloxacin resistant clinical isolate, GN56 Acinetobacter baumannii—levofloxacin resistant clinical isolate, GN48 Klebsiella pneumoniae—NCTC 13443—NDM-1-metallo-R-lactamase and GN10 Pseudomonas aeruginosa—ATCC 27853—antibiotic susceptible reference isolate. All isolates are from the collection maintained at Quotient Bioresearch Ltd., Cambridge, UK.
# (§3) The MIC values for the compounds and polymyxin B and levofloxacin were determined by broth microdilution following CLSI guidelines, and the MICs of agents in combination were determined as described by Pillai et.al (Pillai S K, Moellering R C Jr, Eliopoulis G M; Antimicrobial Combinations in Antibiotics in Laboratory Medicine 5th Edition (V. Lorian Ed) (2005) p 365-440). Initial MIC results were used to determine the microtiter plate patterns for the chequerboards. A suitable doubling dilution concentration range was selected such that the combination antibiotic range was at least two concentrations above and four concentrations below the MIC for each isolate. A fixed range of 0.008 to 8 mg/L was tested for polymyxin B except in the case of A. baumannii GN31 where a range of 0.004 to 4 mg/L was tested when in combination with the compounds 2, 33 and 35 as well as levofloxacin.
# [2] = tested on: GN10 Pseudomonas aeruginosa; assay: as above; assay type: cell-based; conditions: ATCC 27853 / GN10, ATCC 27853, antibiotic susceptible
# Source text: as §1, §2, §3
# [3] = tested on: GN52 Acinetobacter baumannii; assay: as above; assay type: cell-based; conditions: levofloxacin resistant clinical isolate
# Source text: as §1, §2, §3
# [4] = tested on: GN31 Acinetobacter baumannii; assay: as above; assay type: cell-based; conditions: antibiotic susceptible clinical isolate
# Source text: as §1, §2, §3
# [5] = tested on: GN56 Acinetobacter baumannii; assay: as above; assay type: cell-based; conditions: levofloxacin resistant clinical isolate
# Source text: as §1, §2, §3
# [6] = tested on: GN48 Klebsiella pneumoniae; assay: Chequerboard synergy with polymyxin B (FICI); assay type: cell-based
# Source text: as §1, §2, §3
# (§4) From the raw data, fractional inhibitory concentration indices (FICI) were determined for the compounds of the invention and levofloxacin together with polymyxin B for each isolate as follows: FICI=FICX+FICY Where,
# (§5) FICX=concentration of the combination antibiotic in a particular row÷MIC of the combination drug alone
# (§6) FICY=MIC of polymyxin B in combination÷MIC of the polymyxin B alone
# (§7) Additionally isobolograms were created to represent the same data visually. Here, the MIC of polymyxin B was plotted against every concentration of the combination antibiotic up to the MIC.
# [7] = tested on: GN52 Acinetobacter baumannii; assay: Chequerboard synergy with polymyxin B (FICI); assay type: cell-based
# Source text: as §1, §2, §3, §4, §5, §6, §7
# [8] = tested on: GN31 Acinetobacter baumannii; assay: Chequerboard synergy with polymyxin B (FICI); assay type: cell-based
# Source text: as §1, §2, §3, §4, §5, §6, §7
# [9] = tested on: GN56 Acinetobacter baumannii; assay: Chequerboard synergy with polymyxin B (FICI); assay type: cell-based
# Source text: as §1, §2, §3, §4, §5, §6, §7
# S. aureus 25923 HS = assay: MIC, standard panel of Gram-positive and Gram-negative bacteria (CLSI); assay type: cell-based; conditions: Staphylococcus aureus, read-out: MIC S. aureus 25923 HS
# S. epidermis 12228 = assay: as above; assay type: cell-based, Staphylococcus epidermis; conditions: Staphylococcus, 12228, read-out: MIC S. epidermis 12228
# P. aeruginosa 27853 = assay: as above; assay type: cell-based, Pseudomonas aeruginosa; conditions: Pseudomonas aeruginosa, 27853, read-out: MIC P. aeruginosa 27853
# S. aureus 25923 = assay: as above; assay type: cell-based, Staphylococcus aureus; conditions: Staphylococcus aureus, 25923, read-out: MIC S. aureus 25923
# E. coli 25922 = assay: as above; assay type: cell-based, Escherichia coli; conditions: Escherichia coli, 25922, read-out: MIC E. coli 25922
# S. aureus 101 = assay: as above; assay type: cell-based, Staphylococcus aureus; conditions: Staphylococcus aureus, 101, read-out: MIC S. aureus 101
# E. faecalis 29212 = assay: as above; assay type: cell-based, Enterococcus faecalis; conditions: Enterococcus faecalis, 29212, read-out: MIC E. faecalis 29212
# E. faecium 19434 = assay: as above; assay type: cell-based, Enterococcus faecium; conditions: Enterococcus faecium, 19434, read-out: MIC E. faecium 19434
# A. baumanii 19606 = assay: as above; assay type: cell-based; conditions: Acinetobacter baumannii, 19606, read-out: MIC A. baumanii 19606
# E. cloacae 13047 = assay: as above; assay type: cell-based, Enterobacter cloacae; conditions: Enterobacter cloacae, 13047, read-out: MIC E. cloacae 13047
compound,measurement,setting,value
"Cc1c(-c2ccc3[nH]ncc3c2)ccn2c(=O)c(C(=O)O)cc(C3CC3)c12 [Compound 35, 8-(1H-indazol-5-yl)-1-cyclopropyl-9-methyl-4-oxo-quinolizine-3-carboxylic acid]",MIC,[1],16 µg/mL
same,MIC,[2],0.25 µg/mL
same,MIC,[3],2 µg/mL
same,MIC,[4],0.03 µg/mL
same,MIC,[5],8 µg/mL
same,Combination drug MIC alone,[6],16 µg/mL
same,Synergy,[6]; combination with polymyxin B,partial synergy
Polymyxin B,Polymyxin B MIC alone,[6],0.5 µg/mL
same,Polymyxin B MIC alone,[7],0.5 µg/mL
same,Polymyxin B MIC alone,[8],0.25 µg/mL and 0.5 µg/mL
same,Polymyxin B MIC alone,[9],0.5 µg/mL
"CN[C@H](CC(C)C)C(=O)N[C@H]1C(=O)N[C@@H](CC(N)=O)C(=O)N[C@H]2C(=O)N[C@H]3C(=O)N[C@H](C(=O)N[C@H](C(=O)O)c4cc(O)cc(O)c4-c4cc3ccc4O)[C@H](O)c3ccc(c(Cl)c3)Oc3cc2cc(c3O[C@@H]2O[C@H](CO)[C@@H](O)[C@H](O)[C@H]2O[C@H]2C[C@](C)(N)[C@H](O)[C@H](C)O2)Oc2ccc(cc2Cl)[C@H]1O [Vancomycin, reference compound]",MIC,S. aureus 25923 HS,2 µg/mL
same,MIC,S. epidermis 12228,2 µg/mL
same,MIC,P. aeruginosa 27853,> 128 µg/mL
same,MIC,S. aureus 25923,2 µg/mL
same,MIC,E. coli 25922,> 128 µg/mL
same,MIC,S. aureus 101,2 µg/mL
same,MIC,E. faecalis 29212,2 µg/mL
same,MIC,E. faecium 19434,1 µg/mL
same,MIC,A. baumanii 19606,> 128 µg/mL
same,MIC,E. cloacae 13047,> 128 µg/mL

# — patent US10155021B2, “Antimicrobial 4-oxoquinolizines” (Emergent Product Development Gaithersburg Inc., priority 2011, dated 2018)
